The values below come from patent US10004701B2, “Methods and compositions for treating infection” (UNIVERSITY OF ROCHESTER, priority 2012, dated 2018).

Converted amounts (≈) assume the structure as drawn. Where two headings read alike, the source gives them in different places.

The subject of one assay is S. aureus. As to the kind of experiment: Minimum Inhibitory Concentration (MIC) testing, terfenadine study. Format: cell-based. Conditions: Staphylococcus aureus, 16 h.
The next assay concerns the target T1, S. aureus DNA gyrase (Staphylococcus aureus, UniProt P0A0K8+P20831).
T1 construct: purchased TopoGEN
Kind of assay: S. aureus DNA gyrase supercoiling assay (TopoGEN). Format: biochemical. The protocol:
Reactions were incubated at 37° C. for 30 min and then stopped by the addition of 10% SDS, filtered through 0.025 μm Millipore membrane filters in a 10 mM Tris-HCl buffer (pH 8), and electrophoresed in a 1% agarose TAE gel. Gels were stained with 0.5 μg/ml ethidium bromide and images were analyzed using densitometry (Image J, NIH).

A further assay deals with E. faecium. Kind of assay: AK assay 384-well format, Prestwick library screening. Conditions: Enterococcus faecium, 3 h, 50 μM final drug concentration. Format: cell-based, Enterococcus faecium.
Assay [1] concerns S. aureus strain USA300-0114. The assay is described as above. Format: cell-based, Staphylococcus aureus. Conditions: Staphylococcus aureus, USA300, 3 h, 50 μM final drug concentration.
Another assay relates to K. pneumoniae. Described as above. In kind it is cell-based, Klebsiella pneumoniae. Conditions: Klebsiella pneumoniae, 3 h, 50 μM final drug concentration.
Assay [2] deals with A. baumannii strain 98-37-09. The description is as above. Conditions: Acinetobacter baumannii, 983709, 3 h, 50 μM final drug concentration. In kind it is cell-based, Acinetobacter baumannii.
The next assay concerns P. aeruginosa. The assay is described as above. In kind it is cell-based, Pseudomonas aeruginosa. Conditions: Pseudomonas aeruginosa, 3 h, 50 μM final drug concentration.
A further assay deals with E. cloacae. The description is as above. In kind it is cell-based, Enterobacter cloacae. Conditions: Enterobacter cloacae, 3 h, 50 μM final drug concentration.
Another assay concerns E. coli. The description is as above. Format: cell-based, Escherichia coli. Conditions: Escherichia coli, 3 h, 50 μM final drug concentration.
[3] abbreviates: S. aureus, MHB, strain not given, read-out: MIC.

T1 sequence (P0A0K8 whole entry): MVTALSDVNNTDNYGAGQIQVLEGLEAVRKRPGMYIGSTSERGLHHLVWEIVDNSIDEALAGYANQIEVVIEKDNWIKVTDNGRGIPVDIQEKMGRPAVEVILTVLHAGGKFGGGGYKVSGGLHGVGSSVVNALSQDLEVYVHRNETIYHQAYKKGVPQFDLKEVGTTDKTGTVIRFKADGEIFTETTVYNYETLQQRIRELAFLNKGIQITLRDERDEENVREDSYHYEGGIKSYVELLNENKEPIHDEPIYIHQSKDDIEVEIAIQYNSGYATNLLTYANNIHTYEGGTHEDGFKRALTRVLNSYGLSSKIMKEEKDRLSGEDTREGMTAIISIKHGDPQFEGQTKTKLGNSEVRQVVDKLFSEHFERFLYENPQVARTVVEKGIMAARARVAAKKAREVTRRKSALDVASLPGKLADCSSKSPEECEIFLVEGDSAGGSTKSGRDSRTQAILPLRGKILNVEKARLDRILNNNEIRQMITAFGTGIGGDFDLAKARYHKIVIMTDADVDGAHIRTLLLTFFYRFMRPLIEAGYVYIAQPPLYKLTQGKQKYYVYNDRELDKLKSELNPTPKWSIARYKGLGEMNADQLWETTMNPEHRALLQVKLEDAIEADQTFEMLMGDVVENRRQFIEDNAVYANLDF
T1 sequence (P20831 whole entry): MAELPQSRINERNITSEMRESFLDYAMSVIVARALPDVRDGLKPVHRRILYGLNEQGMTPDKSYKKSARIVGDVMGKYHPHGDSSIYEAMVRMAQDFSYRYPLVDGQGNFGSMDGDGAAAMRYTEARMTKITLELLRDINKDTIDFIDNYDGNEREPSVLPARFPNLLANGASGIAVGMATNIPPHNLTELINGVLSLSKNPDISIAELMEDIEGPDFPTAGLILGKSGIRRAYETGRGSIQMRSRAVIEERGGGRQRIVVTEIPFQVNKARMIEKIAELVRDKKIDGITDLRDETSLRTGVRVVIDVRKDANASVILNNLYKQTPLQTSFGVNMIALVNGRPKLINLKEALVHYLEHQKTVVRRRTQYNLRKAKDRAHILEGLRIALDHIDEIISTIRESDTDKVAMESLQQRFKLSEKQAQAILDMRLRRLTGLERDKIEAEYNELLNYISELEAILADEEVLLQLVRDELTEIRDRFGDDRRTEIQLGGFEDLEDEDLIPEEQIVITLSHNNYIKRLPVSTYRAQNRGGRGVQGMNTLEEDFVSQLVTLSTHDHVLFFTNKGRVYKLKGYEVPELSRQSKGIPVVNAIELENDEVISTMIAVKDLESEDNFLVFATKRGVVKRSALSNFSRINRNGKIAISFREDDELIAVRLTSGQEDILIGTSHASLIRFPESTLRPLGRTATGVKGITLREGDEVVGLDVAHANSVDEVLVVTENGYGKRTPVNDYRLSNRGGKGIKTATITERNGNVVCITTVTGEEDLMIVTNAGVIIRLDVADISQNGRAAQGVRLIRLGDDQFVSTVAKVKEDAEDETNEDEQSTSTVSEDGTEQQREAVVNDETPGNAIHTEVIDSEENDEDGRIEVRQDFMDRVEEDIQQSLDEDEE

In the assay with S. aureus, `OC(CCCN1CCC(C(O)(c2ccccc2)c2ccccc2)CC1)c1ccc(-c2ccccc2)cc1` (centres unmarked) [Compound 25, 1-([1,1′-biphenyl]-4-yl)-4-(4-(hydroxydiphenylmethyl)piperidin-1-yl)butan-1-ol] returned an MIC of 8 µg/mL (≈ 16.3 µM). At S. aureus DNA gyrase, this compound gave an IC50 of 27.1 µM.
In the assay with S. aureus, `OC(CCCN1CCC(C(O)(c2ccccc2)c2ccccc2)CC1)c1ccc(Cl)cc1` (centres unmarked) [Compound 4, 1-(4-chlorophenyl)-4-(4-(hydroxydiphenylmethyl)piperidin-1-yl)butan-1-ol] registered an MIC of 64 µg/mL (≈ 142 µM). Also, on S. aureus DNA gyrase, the IC50 was 296 µM.
Consider `CC(C)(C)c1ccc(C(O)CN2CCC(C(O)(c3ccccc3)c3ccccc3)CC2)cc1` (centres unmarked) [Compound 17, 1-(4-(tert-butyl)phenyl)-2-(4-(hydroxydiphenylmethyl)piperidin-1-yl)ethanol], for which, in the assay with S. aureus (setting [3]), the minimal inhibitory concentration (MIC) was determined as 16 µg/mL (≈ 36.1 µM).
For `CC(C)(C)c1ccc(C(=O)N2CCC(C(O)(c3ccccc3)c3ccccc3)CC2)cc1` [Compound 27, (4-(tert-butyl)phenyl)(4-(hydroxydiphenylmethyl)piperidin-1-yl)methanone], the MIC in the assay with S. aureus was above 256 µg/mL. The compound also showed an IC50 at S. aureus DNA gyrase of 218 µM.
`COc1ccc(CCN2CCC(C(O)(c3ccccc3)c3ccccc3)CC2)cc1` [Compound 28, (1-(4-methoxyphenethyl)piperidin-4-yl)diphenylmethanol]: 256 µg/mL (≈ 638 µM) was the least that counted as inhibitory in the assay with S. aureus (MIC). At S. aureus DNA gyrase, the IC50 is above 829 µM.
Turning to `Nc1ccc(CCN2CCC(C(O)(c3ccccc3)c3ccccc3)CC2)cc1` [Compound 34, (1-(4-aminophenethyl)piperidin-4-yl)diphenylmethanol], in the assay on S. aureus, the MIC came out at 256 µg/mL (≈ 662 µM). Moreover, the IC50 against S. aureus DNA gyrase was 241 µM.
For `CC(C)(C)c1ccc(C(O)CCCN2CCC(Cc3ccccc3)CC2)cc1` (centres unmarked) [Compound 40, 4-(4-Benzylpiperidin-1-yl)-1-(4-(tert-butyl)phenyl)butan-1-ol], in that order: 64 µg/mL (≈ 169 µM) and above 877 µM.
Consider `O=[N+]([O-])c1ccc(CCN2CCC(C(O)(c3ccccc3)c3ccccc3)CC2)cc1` [Compound 29, (1-(4-nitrophenethyl)piperidin-4-yl)diphenylmethanol], for which it took 64 µg/mL (≈ 154 µM) to inhibit growth with S. aureus (MIC). This compound had an IC50 against S. aureus DNA gyrase of 632 µM.
On the same counts, the results for `OC(CCCN1CCC(C(O)(c2ccccc2)c2ccccc2)CC1)c1ccccc1` (centres unmarked) [Compound 6, 4-(4-(hydroxydiphenylmethyl)piperidin-1-yl)-1-phenylbutan-1-ol] are 256 µg/mL (≈ 616 µM) and above 1200 µM.
For the compound `OC(c1ccccc1)(c1ccccc1)C1CCN(CCc2ccc(-c3ccncc3)cc2)CC1` [Compound 33, Diphenyl(1-(4-(pyridin-4-yl)phenethyl)piperidin-4-yl)methanol], in the assay with S. aureus, 32 µg/mL (≈ 71.3 µM) was the least that counted as inhibitory (MIC). The same compound had an IC50 on S. aureus DNA gyrase of 208 µM.
On the same counts, the results for `Cc1ccc(C(O)CCCN2CCC(C(O)(c3ccccc3)c3ccccc3)CC2)cc1` (centres unmarked) [Compound 14, 4-(4-(hydroxydiphenylmethyl)piperidin-1-yl)-1-(p-tolyl)butan-1-ol] are 128 µg/mL (≈ 298 µM) and above 1160 µM.
As to `CC(C)(C)c1ccc(C(O)CCCCN2CCC(C(O)(c3ccccc3)c3ccccc3)CC2)cc1` (centres unmarked) [Compound 2, 1-(4-(tert-butyl)phenyl)-5-(4-(hydroxydiphenylmethyl)piperidin-1-yl)pentan-1-ol], the MIC in the assay with S. aureus came out at 16 µg/mL (≈ 32.9 µM). Besides, half-maximal inhibition against S. aureus DNA gyrase (IC50) required 206 µM.
Regarding `COc1ccc(C(O)CCCN2CCC(C(O)(c3ccccc3)c3ccccc3)CC2)cc1` (centres unmarked) [Compound 7, 4-(4-(hydroxydiphenylmethyl)piperidin-1-yl)-1-(4-methoxyphenyl)butan-1-ol], in the assay on S. aureus, inhibition of growth (MIC) required 256 µg/mL (≈ 575 µM). On S. aureus DNA gyrase, this compound showed an IC50 above 1120 µM.
For `O=C(O)c1ccc(C(O)CCCN2CCC(C(O)(c3ccccc3)c3ccccc3)CC2)cc1` (centres unmarked) [Compound 19, 4-(1-hydroxy-4-(4-(hydroxydiphenylmethyl)piperidin-1-yl)butyl)benzoic acid], the minimum inhibitory concentration (MIC) in the assay on S. aureus was above 256 µg/mL. Also, the IC50 on S. aureus DNA gyrase is above 1090 µM.
For `CN(C)c1ccc(CCN2CCC(C(O)(c3ccccc3)c3ccccc3)CC2)cc1` [Compound 36, (1-(4-(Dimethylamino)phenethyl)piperidin-4-yl)diphenylmethanol], in that order: 256 µg/mL (≈ 617 µM) and above 803 µM.
Regarding `OC(c1ccccc1)(c1ccccc1)C1CCN(CCc2ccc(-c3ccccc3)cc2)CC1` [Compound 32, (1-(2-([1,1′-biphenyl]-4-yl)ethyl)piperidin-4-yl)diphenylmethanol], the MIC with S. aureus (setting [3]) was found to be 8 µg/mL (≈ 17.9 µM). Moreover, the midpoint of inhibition on S. aureus DNA gyrase, the IC50, lay at 179 µM.
Compound `OC(c1ccccc1)(c1ccccc1)C1CCN(CCc2ccc(Cl)cc2)CC1` [Compound 44, (1-(4-Chlorophenethyl)piperidin-4-yl)diphenylmethanol] returned an MIC against S. aureus of 32 µg/mL (≈ 78.8 µM). Moreover, the IC50 against S. aureus DNA gyrase was 640 µM.
With `CC(C)c1ccc(C(O)CCCN2CCC(C(O)(c3ccccc3)c3ccccc3)CC2)cc1` (centres unmarked) [Compound 1, 4-(4-(hydroxydiphenylmethyl)piperidin-1-yl)-1-(4-isopropylphenyl)butan-1-ol], the MIC in the assay on S. aureus (setting [3]) amounted to 16 µg/mL (≈ 35 µM).
Take `CC(C)(C)c1ccc(C(O)CCCN2CCC(C(O)c3ccccc3)CC2)cc1` (mixture of isomers) [Compound 31, 1-(4-(tert-butyl)phenyl)-4-(4-(hydroxy(phenyl)methyl)piperidin-1-yl)butan-1-ol]: in the assay with S. aureus, inhibition of growth (MIC) required 128 µg/mL.
As to `OC(CCCN1CCC(C(O)(c2ccccc2)c2ccccc2)CC1)c1ccc(Br)cc1` (centres unmarked) [Compound 9, 1-(4-bromophenyl)-4-(4-(hydroxydiphenylmethyl)piperidin-1-yl)butan-1-ol], the MIC with S. aureus was determined as 32 µg/mL (≈ 64.7 µM). At S. aureus DNA gyrase, this compound registered an IC50 above 1010 µM.
`CC(C)(C)c1ccc(OCCCN2CCC(C(O)(c3ccccc3)c3ccccc3)CC2)cc1` [Compound 42, (1-(3-(4-(Tert-butyl)phenoxy)propyl)piperidin-4-yl)diphenylmethanol] showed an IC50 against S. aureus DNA gyrase of 219 µM.
Same read-out and setting: to `CC(C)(C)c1ccc(CN2CCC(C(O)(c3ccccc3)c3ccccc3)CC2)cc1` [Compound 26, (1-(4-(tert-butyl)benzyl)piperidin-4-yl)diphenylmethanol] belongs 218 µM.
Regarding `CC(C)(C)c1ccc(C(N)CCCN2CCC(C(O)(c3ccccc3)c3ccccc3)CC2)cc1` (centres unmarked) [Compound 24, (1-(4-amino-4-(4-(tert-butyl)phenyl)butyl)piperidin-4-yl)diphenylmethanol], inhibition of growth against S. aureus (MIC) required 16 µg/mL (≈ 34 µM).
For the compound `CC(C)(C)c1ccc(C(=O)CCCN2CCC(C(O)(c3ccccc3)c3ccccc3)CC2)cc1` [Compound 11, 1-(4-(tert-butyl)phenyl)-4-(4-(hydroxydiphenylmethyl)piperidin-1-yl)butan-1-one], the MIC against S. aureus was found to be 8 µg/mL (≈ 17 µM).
Take `CC(C)(C)c1ccc(C(=O)CN2CCC(C(O)(c3ccccc3)c3ccccc3)CC2)cc1` [Compound 20, 1-(4-(tert-butyl)phenyl)-2-(4-(hydroxydiphenylmethyl)piperidin-1-yl)ethanone]: the MIC in the assay on S. aureus was above 256 µg/mL.
On to `O=C(CCCN1CCN(c2ccccn2)CC1)c1ccc(F)cc1` [Azaperone], for which the fold induction at 50 µM with E. faecium (planktonic E. faecium, positive cutoff 3-fold increase, read-out: AK-based Prestwick library screening result, E. faecium (fold increase in extracellular AK activity)) is 1; in assay [1] (planktonic S. aureus, positive cutoff 3-fold increase, read-out: AK-based Prestwick library screening result, S. aureus (fold increase in extracellular AK activity)), 1.2; with K. pneumoniae (planktonic K. pneumoniae, positive cutoff 3-fold increase, read-out: AK-based Prestwick library screening result, K. pneumoniae (fold increase in extracellular AK activity)), 1; in assay [2] (planktonic A. baumannii, positive cutoff 3-fold increase, read-out: AK-based Prestwick library screening result, A. baumannii (fold increase in extracellular AK activity)), 1.2; in the assay on P. aeruginosa (planktonic P. aeruginosa, positive cutoff 3-fold increase, read-out: AK-based Prestwick library screening result, P. aeruginosa (fold increase in extracellular AK activity)), 1; with E. cloacae (planktonic E. cloacae, positive cutoff 3-fold increase, read-out: AK-based Prestwick library screening result, E. cloacae (fold increase in extracellular AK activity)) it was 1.9. Also, the fold induction at 50 µM in the assay with E. coli (planktonic E. coli, positive cutoff 3-fold increase, read-out: AK-based Prestwick library screening result, E. coli (fold increase in extracellular AK activity)) came to 1.1.
With `CC1(C)NC(=O)N(c2ccc([N+](=O)[O-])c(C(F)(F)F)c2)C1=O` [Nilutamide], the fold induction at 50 µM with E. faecium ([…], read-out: AK-based Prestwick Library Screening Results, E. faecium (fold increase in extracellular AK activity)) turned out to be 1; in assay [1] ([…], read-out: AK-based Prestwick Library Screening Results, S. aureus (fold increase in extracellular AK activity)), 1.3; in the assay on K. pneumoniae ([…], read-out: AK-based Prestwick Library Screening Results, K. pneumoniae (fold increase in extracellular AK activity)) it was 1; in assay [2] ([…], read-out: AK-based Prestwick Library Screening Results, A. baumannii (fold increase in extracellular AK activity)), 1.2; with P. aeruginosa ([…], read-out: AK-based Prestwick Library Screening Results, P. aeruginosa (fold increase in extracellular AK activity)), 1.2; in the assay with E. cloacae ([…], read-out: AK-based Prestwick Library Screening Results, E. cloacae (fold increase in extracellular AK activity)) it was 1.4. In addition, the fold induction at 50 µM with E. coli ([…], read-out: AK-based Prestwick Library Screening Results, E. coli (fold increase in extracellular AK activity)) was 1.2.
